Target: T1, ULK3 (Homo sapiens, UniProt Q6PHR2)
T1 construct: purchased Thermo Fisher Scientific (Life Technologies) SelectScreen
Assay: SelectScreen LanthaScreen
Format: binding
Settings: 1 µM
How it was run: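 SelectScreen broad panel; activity (Z'LYTE, Adapta) plus binding formats. ATP: Km app for CSF1R Z'LYTE; 10 for CAMK1 Adapta. Readout = % per kinase.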

T1 sequence (Q6PHR2 whole entry): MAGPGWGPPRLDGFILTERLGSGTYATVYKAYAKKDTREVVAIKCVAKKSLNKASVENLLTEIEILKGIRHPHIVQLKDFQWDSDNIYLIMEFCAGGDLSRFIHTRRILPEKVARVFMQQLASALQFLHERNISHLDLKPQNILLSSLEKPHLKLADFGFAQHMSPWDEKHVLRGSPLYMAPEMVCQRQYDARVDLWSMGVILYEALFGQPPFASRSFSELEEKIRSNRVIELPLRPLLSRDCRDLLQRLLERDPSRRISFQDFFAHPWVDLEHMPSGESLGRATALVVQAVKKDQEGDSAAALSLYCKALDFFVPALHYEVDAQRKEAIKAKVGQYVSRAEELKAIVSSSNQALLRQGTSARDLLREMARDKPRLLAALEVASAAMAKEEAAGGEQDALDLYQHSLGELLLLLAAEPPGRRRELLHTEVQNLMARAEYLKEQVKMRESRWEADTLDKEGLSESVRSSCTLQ

Structure (SMILES): CN(C(=O)CN1CCOCC1)c1ccc2sc3c(-c4cccc5c(=O)cc(N6CC7CCC(C6)O7)oc45)cccc3c2c1 [NU5455]
- % displacement: 4.5%
